# Results from patent US20240254117A1, “PYRIMIDO-HETEROCYCLIC COMPOUNDS, AND PREPARATION METHOD THEREFOR AND USE THEREOF” (SHANGHAI RINGENE BIOPHARMA CO., LTD., priority 2020, published 2024).
# Test system: pERK
# Experiment: p-ERK level in PC9 cells (AlphaLISA SureFire Ultra p-ERK1/2)
# Format: cell-based
# Details: Homo sapiens, PC-9, 1 h, read-out: SOS1 pERK IC50
# Description: PC9 cells were seeded in 384-well cell culture plate (40 μL/well) according to a certain concentration and placed in a cell culture incubator with 37° C. and 5% CO2 overnight. On the next day, the plate was added with serially diluted test compounds (5 concentrations, 3-fold dilution, the highest concentration was 10 uM) for 1 hour, and then the lysate containing protease and phosphatase inhibitor was added to lyse the cells-extracted proteins, cellular pERK levels were measured using the AlphaLISASureFire Ultra p ERK1/2 assay kit (PerkinElmer). The standard AlphaLISA settings on the Envision plate reader (PerkinElmer) was used to read the signal. Raw data were analyzed in Excel (Microsoft) and Prism (GraphPad). The signal was plotted against the common logarithm of compound concentration and IC50 was calculated by fitting a four parameter non-linear regression curve.
row,SMILES,IC50 [µM]
1,"CC(=O)N1CCC(O)(c2cc3c(N[C@H](C)c4cc(N)cc(C(F)(F)F)c4)nc(C)nc3n3ccnc23)CC1 [Example 85, (R)-1-(4-(4-((1-(3-amino-5-(trifluoromethyl)phenyl)ethyl)amino)-2-methylimidazole [1′,2′:1,6]pyrido [2,3-d]pyrimidin-6-yl)-4-hydroxypiperidin-1-yl) ethyl-1-one]",< 1
2,COC1(c2cc3c(N[C@H](C)c4cc(N)cc(C(F)(F)F)c4)nc(C)nc3n3ccnc23)CC2CCC(C1)N2C(=O)C(C)C (stereo partly shown) [Example 91],< 1
3,COC1(c2cc3c(N[C@H](C)c4cc(N)cc(C(F)(F)F)c4)nc(C)nc3n3ccnc23)CC2CCC(C1)N2C (stereo partly shown) [Example 92],< 1
4,COC1(c2cc3c(N[C@H](C)c4cc(N)cc(C(F)(F)F)c4)nc(C)nc3n3ccnc23)CC2CCC(C1)N2C(C)C (stereo partly shown) [Example 93],< 1

# Same assay, conditions: Homo sapiens, PC-9; PC9 cells, 1 hour compound treatment; read-out: SOS1 pERK IC50
row,SMILES,IC50 [µM]
1,COC1(c2cc3c(N[C@H](C)c4cc(N)cc(C(F)(F)F)c4)nc(C)nc3n3ccnc23)CCOCC1 [Example 75],< 1
2,COC1(c2cc3c(N[C@H](C)c4cc(N)cc(C(F)(F)F)c4)nc(C)nc3n3ccnc23)CCN(C(C)=O)CC1 [Example 76],< 1
3,COC1(c2cc3c(N[C@H](C)c4cc(N)cc(C(F)(F)F)c4)nc(C)nc3n3ccnc23)CCS(=O)(=O)CC1 [Example 77],< 1
4,Cc1nc(N[C@H](C)c2cc(N)cc(C(F)(F)F)c2)c2cc(C3(C#N)CCS(=O)(=O)CC3)c3nccn3c2n1 [Example 78],< 1
5,COC1(c2cc3c(N[C@H](C)c4cccc(C(F)(F)F)c4C)nc(C)nc3n3ccnc23)CCOCC1 [Example 79],< 1
6,Cc1nc(N[C@H](C)c2cccc(C(F)(F)F)c2C)c2cc(C3(C#N)CCS(=O)(=O)CC3)c3nccn3c2n1 [Example 80],< 1
7,COC1(c2cc3c(N[C@H](C)c4cccc(C(F)(F)F)c4C)nc(C)nc3n3ccnc23)CCN(C(C)C)CC1 [Example 81],< 1
8,COC1(c2cc3c(N[C@H](C)c4cc(N)cc(C(F)(F)F)c4)nc(C)nc3n3ccnc23)CCN(C(=O)C(C)C)CC1 [Example 89],< 1
9,Cc1nc(N[C@H](C)c2cc(N)cc(C(F)(F)F)c2)c2cc(C3(C#N)CCN(C(=O)C(C)C)CC3)c3nccn3c2n1 [Example 90],< 1
